Assays:
[1] = system: ORYSAT Rice, Tebonnet; assay: Preemergence herbicidal evaluation, ORYSAT; assay type: in vivo, Oryza sativa, (L.); parameters: scale not given here; conditions: preemergence
How it was run: (§1)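 Visual ratings were taken four to five weeks after application. Before that, cups sown with seed in potting soil received a spray of compound dissolved in aqueous acetone, equivalent to about 0.013 to 0.800 kg/ha, and stood on greenhouse benches under conventional care.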

[2] = system: GALAP Galium; assay: Preemergence herbicidal evaluation, GALAP; assay type: in vivo, Galium aparine; parameters: scale not given here; conditions: preemergence
How it was run: as §1

[3] = system: TRZAWR Wheat, Winter, cv Riband; assay: Postemergence herbicidal evaluation, TRZAWR; assay type: in vivo, Triticum aestivum; parameters: scale not given here; conditions: postemergence spray, rated about two-three weeks after treatment
How it was run: (§2)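 Ratings from greenhouse plants scored about two to three weeks after a foliar spray; data from multiple tests averaged. Seedlings about two weeks old received roughly 0.006–0.400 kg/ha active compound in 80/20 acetone/water with 1.0% methylated seed oil.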

[4] = system: ECHOG Barnyardgrass; assay: Postemergence herbicidal evaluation, ECHOG; assay type: in vivo, Echinochloa crus-galli, (L.) Beau; parameters: scale not given here; conditions: postemergence spray, rated about two-three weeks after treatment
How it was run: as §2

[5] = system: GALAP Galium; assay: Postemergence herbicidal evaluation, GALAP; assay type: in vivo, Galium aparine; parameters: scale not given here; conditions: postemergence spray, rated about two-three weeks after treatment
How it was run: as §2

[6] = system: ECHOG Barnyardgrass; assay: Preemergence herbicidal evaluation, ECHOG; assay type: in vivo, Echinochloa crus-galli, (L.) Beau; parameters: scale not given here; conditions: preemergence
How it was run: as §1

[7] = system: GLXMAW Soybean, Williams; assay: Postemergence herbicidal evaluation, GLXMAW; assay type: in vivo, Glycine max, (L.) Merr. cv Williams; parameters: scale not given here; conditions: postemergence spray, rated about two-three weeks after treatment
How it was run: as §2

[8] = system: SETVI Foxtail, Green; assay: Postemergence herbicidal evaluation, SETVI; assay type: in vivo, Setaria viridis, (L.) Beau; parameters: scale not given here; conditions: postemergence spray, rated about two-three weeks after treatment
How it was run: as §2

[9] = system: IPOHE Morningglory, Ivyleaf; assay: Postemergence herbicidal evaluation, IPOHE; assay type: in vivo, Ipomoea hederacea, (L.) Jacq.; parameters: scale not given here; conditions: postemergence spray, rated about two-three weeks after treatment
How it was run: as §2

[10] = system: ZEAMX Corn, Field; assay: Preemergence herbicidal evaluation, ZEAMX; assay type: in vivo, Zea mays, L. (Sammel-Bezeichnung); parameters: scale not given here; conditions: preemergence
How it was run: as §1

[11] = system: ORYSAT Rice, Tebonnet; assay: Postemergence herbicidal evaluation, ORYSAT; assay type: in vivo, Oryza sativa, (L.); parameters: scale not given here; conditions: postemergence spray, rated about two-three weeks after treatment
How it was run: as §2

[12] = system: SETVI Foxtail, Green; assay: Preemergence herbicidal evaluation, SETVI; assay type: in vivo, Setaria viridis, (L.) Beau; parameters: scale not given here; conditions: preemergence
How it was run: as §1

[13] = system: TRZAWR Wheat, Winter, cv Riband; assay: Preemergence herbicidal evaluation, TRZAWR; assay type: in vivo, Triticum aestivum; parameters: scale not given here; conditions: preemergence, rate 0.062 kg/ha
How it was run: as §1

[14] = system: ABUTH Velvetleaf; assay: Preemergence herbicidal evaluation, ABUTH; assay type: in vivo, Abutilon theophrasti, Medic.; parameters: scale not given here; conditions: preemergence
How it was run: as §1

[15] = system: AMBEL Ragweed, Common; assay: Preemergence herbicidal evaluation, AMBEL; assay type: in vivo, Ambrosia artemisifolia, L.; parameters: scale not given here; conditions: preemergence
How it was run: as §1

[16] = system: IPOHE Morningglory, Ivyleaf; assay: Preemergence herbicidal evaluation, IPOHE; assay type: in vivo, Ipomoea hederacea, (L.) Jacq.; parameters: scale not given here; conditions: preemergence
How it was run: as §1

[17] = system: ABUTH Velvetleaf; assay: Postemergence herbicidal evaluation, ABUTH; assay type: in vivo, Abutilon theophrasti, Medic.; parameters: scale not given here; conditions: postemergence spray, rated about two-three weeks after treatment
How it was run: as §2

[18] = system: CHEAL Lambsquarters, Common; assay: Preemergence herbicidal evaluation, CHEAL; assay type: in vivo, Chenopodium album, L.; parameters: scale not given here; conditions: preemergence
How it was run: as §1

[19] = system: CHEAL Lambsquarters, Common; assay: Postemergence herbicidal evaluation, CHEAL; assay type: in vivo, Chenopodium album, L.; parameters: scale not given here; conditions: postemergence spray, rated about two-three weeks after treatment
How it was run: as §2

[20] = system: GLXMAW Soybean, Williams; assay: Preemergence herbicidal evaluation, GLXMAW; assay type: in vivo, Glycine max, (L.) Merr. cv Williams; parameters: scale not given here; conditions: preemergence
How it was run: as §1

[21] = system: CASOB Sicklepod; assay: Postemergence herbicidal evaluation, CASOB; assay type: in vivo, Cassia obtusifolia, L.; parameters: scale not given here; conditions: postemergence spray, rated about two-three weeks after treatment
How it was run: as §2

[22] = system: CASOB Sicklepod; assay: Preemergence herbicidal evaluation, CASOB; assay type: in vivo, Cassia obtusifolia, L.; parameters: scale not given here; conditions: preemergence
How it was run: as §1

[23] = system: ZEAMX Corn, Field; assay: Postemergence herbicidal evaluation, ZEAMX; assay type: in vivo, Zea mays, L. (Sammel-Bezeichnung); parameters: scale not given here; conditions: postemergence spray, rated about two-three weeks after treatment
How it was run: as §2

[24] = system: AMBEL Ragweed, Common; assay: Postemergence herbicidal evaluation, AMBEL; assay type: in vivo, Ambrosia artemisifolia, L.; parameters: scale not given here; conditions: postemergence spray, rated about two-three weeks after treatment
How it was run: as §2

CCc1ccc(-n2nnc3cc(F)c(-n4c(=O)cc(C(F)(F)F)n(C)c4=O)cc32)cc1 [Example 17, 3-[1-(4-ethylphenyl)-5-fluoro-1H-1,2,3-benzotriazol-6-yl]-1-methyl-6-(trifluoromethyl)-2,4(1H,3H)-pyrimidinedione]
1.3: CASOB herbicidal rating ([22]; rate 0.032 kg/ha)
6.7: ZEAMX herbicidal rating ([10]; rate 0.125 kg/ha) | AMBEL herbicidal rating ([15]; rate 0.062 kg/ha)
6.5: SETVI herbicidal rating ([12]; rate 0.016 kg/ha)
3.5: Postemergence herbicidal rating TRZAWR ([3]; 0.008 kg/ha) | Postemergence herbicidal rating TRZAWR ([3]; 0.016 kg/ha) | Postemergence herbicidal rating ORYSAT ([11]; 0.032 kg/ha)
1.0: ORYSAT herbicidal rating ([1]; rate 0.016 kg/ha) | GALAP herbicidal rating ([2]; rate 0.062 kg/ha) | GALAP herbicidal rating ([2]; rate 0.125 kg/ha) | Postemergence herbicidal rating ECHCG ([4]; 0.032 kg/ha) | Postemergence herbicidal rating SETVI ([8]; 0.008 kg/ha) | Postemergence herbicidal rating SETVI ([8]; 0.016 kg/ha) | ZEAMX herbicidal rating ([10]; rate 0.016 kg/ha) | Postemergence herbicidal rating CASOB ([21]; 0.008 kg/ha)
5.0: Postemergence herbicidal rating TRZAWR ([3]; 0.062 kg/ha) | Postemergence herbicidal rating ECHCG ([4]; 0.062 kg/ha) | Postemergence herbicidal rating CASOB ([21]; 0.032 kg/ha) | Postemergence herbicidal rating ZEAMX ([23]; 0.008 kg/ha) | Postemergence herbicidal rating AMBEL ([24]; 0.008 kg/ha)
1.7: ECHCG herbicidal rating ([6]; rate 0.032 kg/ha) | GLXMAW herbicidal rating ([20]; rate 0.032 kg/ha)
2.0: Postemergence herbicidal rating GALAP ([5]; 0.008 kg/ha)
0.5: ORYSAT herbicidal rating ([1]; rate 0.032 kg/ha)
4.7: ORYSAT herbicidal rating ([1]; rate 0.125 kg/ha)
8.3: ECHCG herbicidal rating ([6]; rate 0.125 kg/ha) | AMBEL herbicidal rating ([15]; rate 0.125 kg/ha)
3.3: AMBEL herbicidal rating ([15]; rate 0.032 kg/ha) | IPOHE herbicidal rating ([16]; rate 0.032 kg/ha) | CASOB herbicidal rating ([22]; rate 0.062 kg/ha)
9.0: Postemergence herbicidal rating IPOHE ([9]; 0.008 kg/ha) | Postemergence herbicidal rating IPOHE ([9]; 0.016 kg/ha) | Postemergence herbicidal rating IPOHE ([9]; 0.032 kg/ha) | Postemergence herbicidal rating IPOHE ([9]; 0.062 kg/ha) | SETVI herbicidal rating ([12]; rate 0.062 kg/ha) | SETVI herbicidal rating ([12]; rate 0.125 kg/ha) | ABUTH herbicidal rating ([14]; rate 0.016 kg/ha) | ABUTH herbicidal rating ([14]; rate 0.062 kg/ha) | ABUTH herbicidal rating ([14]; rate 0.125 kg/ha) | IPOHE herbicidal rating ([16]; rate 0.125 kg/ha) | Postemergence herbicidal rating ABUTH ([17]; 0.008 kg/ha) | Postemergence herbicidal rating ABUTH ([17]; 0.016 kg/ha) | Postemergence herbicidal rating ABUTH ([17]; 0.032 kg/ha) | Postemergence herbicidal rating ABUTH ([17]; 0.062 kg/ha) | CHEAL herbicidal rating ([18]; rate 0.016 kg/ha) | CHEAL herbicidal rating ([18]; rate 0.032 kg/ha) | CHEAL herbicidal rating ([18]; rate 0.062 kg/ha) | CHEAL herbicidal rating ([18]; rate 0.125 kg/ha) | Postemergence herbicidal rating CHEAL ([19]; 0.008 kg/ha) | Postemergence herbicidal rating CHEAL ([19]; 0.062 kg/ha) | Postemergence herbicidal rating AMBEL ([24]; 0.062 kg/ha)
7.0: Postemergence herbicidal rating GALAP ([5]; 0.062 kg/ha) | Postemergence herbicidal rating GLXMAW ([7]; 0.062 kg/ha) | ABUTH herbicidal rating ([14]; rate 0.032 kg/ha) | Postemergence herbicidal rating CHEAL ([19]; 0.032 kg/ha)
3.7: ZEAMX herbicidal rating ([10]; rate 0.032 kg/ha)
0.0: GALAP herbicidal rating ([2]; rate 0.016 kg/ha) | GALAP herbicidal rating ([2]; rate 0.032 kg/ha) | Postemergence herbicidal rating ECHCG ([4]; 0.008 kg/ha) | Postemergence herbicidal rating ECHCG ([4]; 0.016 kg/ha) | ECHCG herbicidal rating ([6]; rate 0.016 kg/ha) | AMBEL herbicidal rating ([15]; rate 0.016 kg/ha) | IPOHE herbicidal rating ([16]; rate 0.016 kg/ha) | CASOB herbicidal rating ([22]; rate 0.016 kg/ha)
4.0: ORYSAT herbicidal rating ([1]; rate 0.062 kg/ha) | Postemergence herbicidal rating TRZAWR ([3]; 0.032 kg/ha) | Postemergence herbicidal rating GALAP ([5]; 0.016 kg/ha) | Postemergence herbicidal rating GALAP ([5]; 0.032 kg/ha) | ZEAMX herbicidal rating ([10]; rate 0.062 kg/ha) | Postemergence herbicidal rating ORYSAT ([11]; 0.062 kg/ha)
3.0: Postemergence herbicidal rating SETVI ([8]; 0.032 kg/ha) | Postemergence herbicidal rating ORYSAT ([11]; 0.008 kg/ha) | Postemergence herbicidal rating ORYSAT ([11]; 0.016 kg/ha) | TRZAWR herbicidal rating [13] | GLXMAW herbicidal rating ([20]; rate 0.062 kg/ha) | GLXMAW herbicidal rating ([20]; rate 0.125 kg/ha) | Postemergence herbicidal rating CASOB ([21]; 0.016 kg/ha)
2.3: CASOB herbicidal rating ([22]; rate 0.125 kg/ha)
6.0: IPOHE herbicidal rating ([16]; rate 0.062 kg/ha) | Postemergence herbicidal rating CHEAL ([19]; 0.016 kg/ha) | Postemergence herbicidal rating CASOB ([21]; 0.062 kg/ha) | Postemergence herbicidal rating AMBEL ([24]; 0.016 kg/ha)
5.5: Postemergence herbicidal rating GLXMAW ([7]; 0.008 kg/ha) | Postemergence herbicidal rating GLXMAW ([7]; 0.016 kg/ha) | Postemergence herbicidal rating GLXMAW ([7]; 0.032 kg/ha) | Postemergence herbicidal rating ZEAMX ([23]; 0.016 kg/ha) | Postemergence herbicidal rating ZEAMX ([23]; 0.032 kg/ha) | Postemergence herbicidal rating ZEAMX ([23]; 0.062 kg/ha)
1.5: GLXMAW herbicidal rating ([20]; rate 0.016 kg/ha)
8.0: Postemergence herbicidal rating SETVI ([8]; 0.062 kg/ha) | Postemergence herbicidal rating AMBEL ([24]; 0.032 kg/ha)
6.3: ECHCG herbicidal rating ([6]; rate 0.062 kg/ha)
7.3: SETVI herbicidal rating ([12]; rate 0.032 kg/ha)
189 to 192 °C: melting point

— US20020111274A1, “1-alkyl-3-[1-(substituted phenyl) benzotriazol-6-yl] uracils” (BASF Aktiengesellschaft, priority 2000, published 2002)
